Legend:
[1] = system: BRCA2-deficient PEO1 ovarian cancer cells; settings: 3 days after treatment; 3 nM doxorubicin, 10 μM 3E10
[2] = system: BRCA2-proficient PEO1 C4-2 ovarian cancer cells; settings: 3 days after treatment; 3 nM doxorubicin, 10 μM 3E10

In the case of `COc1cccc2c1C(=O)c1c(O)c3c(c(O)c1C2=O)C[C@@](O)(C(=O)CO)C[C@@H]3O[C@H]1C[C@H](N)[C@H](O)[C@H](C)O1` [doxorubicin], the “cell death, BRCA2-deficient cells” value [1] is reported as “not significantly toxic” and the “cell death, BRCA2-proficient cells” value [2] is reported as “not significantly toxic”.

Reference: patent US10961301B2, “Cell-penetrating anti-DNA antibodies and uses thereof inhibit DNA repair” (Yale University, priority 2011, dated 2021)
